# Key:
# cocklebur = assay: Test B pre/postemergence cocklebur; assay type: in vivo, Xanthium strumarium
# Outline: (§1)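 Herbicidal effect was estimated by eye on a ten-point control scale after plants spent twelve to sixteen days in a greenhouse following soil or foliar treatment. Foliar sprays targeted plants at one to four leaves; all doses were formulated in a non-phytotoxic solvent with surfactant.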
# sugar beet = assay: Test B pre/postemergence sugar beet; assay type: in vivo, Beta vulgaris
# Outline: as §1
# crabgrass = assay: Test B pre/postemergence crabgrass; assay type: in vivo, Digitaria sanguinalis
# Outline: as §1
# wild oat = assay: Test B pre/postemergence wild oat; assay type: in vivo, Avena fatua
# Outline: as §1
# bedstraw = assay: Test B pre/postemergence bedstraw; assay type: in vivo, Galium aparine; conditions: Preemergence; for Bedstraw plant response rating: scale 0 to 10, 0 is no effect, 10 is complete control
# Outline: as §1
# corn = assay: Test B pre/postemergence corn; assay type: in vivo, Zea mays
# Outline: as §1
# blackgrass = assay: Test B pre/postemergence blackgrass; assay type: in vivo, Alopecurus myosuroides
# Outline: as §1
# purple nutsedge = assay: Test B pre/postemergence purple nutsedge; assay type: in vivo, Cyperus rotundus
# Outline: as §1
# velvetleaf = assay: Test B pre/postemergence velvetleaf; assay type: in vivo, Abutilon theophrasti
# Outline: as §1
# giant foxtail = assay: Test B pre/postemergence giant foxtail; assay type: in vivo, Setaria faberii
# Outline: as §1
# pigweed = assay: Test B pre/postemergence pigweed; assay type: in vivo, Amaranthus retroflexus
# Outline: as §1
# soybean = assay: Test B pre/postemergence soybean; assay type: in vivo, Glycine max
# Outline: as §1
# morningglory = assay: Test B pre/postemergence morningglory; assay type: in vivo, Ipomoea hederacea
# Outline: as §1
# wheat = assay: Test B pre/postemergence wheat; assay type: in vivo, Triticum aestivum
# Outline: as §1
# rape = assay: Test B pre/postemergence rape; assay type: in vivo, Brassica napus
# Outline: as §1
# surinam grass = assay: Test B pre/postemergence surinam grass; assay type: in vivo, Brachiaria decumbens
# Outline: as §1
# [1] = Postemergence, Rate 62 g/ha, scale of 0 to 10, 0 is no effect, 10 is complete control
# [2] = Postemergence, Rate 125 g/ha, scale 0 to 10, 0 is no effect, 10 is complete control
# [3] = Postemergence, Rate 500 g/ha, scale 0 to 10, 0 is no effect, 10 is complete control
# [4] = Preemergence, Rate 62 g/ha, scale of 0 to 10 where 0 is no effect and 10 is complete control
# [5] = Preemergence, Rate 125 g/ha, scale 0 to 10, 0 is no effect, 10 is complete control
# [6] = Preemergence, Rate 500 g/ha, scale of 0 to 10 where 0 is no effect and 10 is complete control
# [7] = Rate 250 g/ha, Postemergence, scale of 0 to 10 where 0 is no effect and 10 is complete control
structure (smiles),measurement,setting,value
CC(C)N(C(=O)n1oc(=O)n(COCc2ccccc2)c1=O)c1ccc(F)cc1F [Compound 520],Cocklebur plant response rating,cocklebur; [1],0
same,Cocklebur plant response rating,cocklebur; [2],0
same,"Plant response rating, Cocklebur",cocklebur; [3],0
same,"Plant response rating, Cocklebur",cocklebur; [4],0
same,Cocklebur plant response rating,cocklebur; [5],0
same,Cocklebur plant response rating (0 to 10 scale),"cocklebur; Preemergence, Rate 250 g/ha",0
same,Cocklebur plant response rating,cocklebur; [6],0
same,"Plant response rating, Cocklebur",cocklebur; [7],0
same,Sugarbeets plant response rating,sugar beet; [1],0
same,Sugarbeets plant response rating,sugar beet; [2],0
same,"Plant response rating, Sugarbeets",sugar beet; [3],2
same,"Plant response rating, Sugarbeets",sugar beet; [4],0
same,Sugarbeets plant response rating,sugar beet; [5],0
same,Sugarbeets plant response rating (0 to 10 scale),"sugar beet; Preemergence, Rate 250 g/ha",0
same,Sugarbeets plant response rating,sugar beet; [6],0
same,"Plant response rating, Sugarbeets",sugar beet; [7],0
same,Crabgrass plant response rating,crabgrass; [1],2
same,Crabgrass plant response rating,crabgrass; [2],3
same,"Plant response rating, Crabgrass",crabgrass; [3],9
same,"Plant response rating, Crabgrass",crabgrass; [4],9
same,Crabgrass plant response rating,crabgrass; [5],9
same,Crabgrass plant response rating (0 to 10 scale),"crabgrass; Preemergence, Rate 250 g/ha",10
same,Crabgrass plant response rating,crabgrass; [6],10
same,"Plant response rating, Crabgrass",crabgrass; [7],4
same,Wild oats plant response rating,wild oat; [1],0
same,Wild oats plant response rating,wild oat; [2],0
same,"Plant response rating, Wild oats",wild oat; [3],0
same,"Plant response rating, Wild oats",wild oat; [4],0
same,Wild oats plant response rating,wild oat; [5],0
same,Wild oats plant response rating (0 to 10 scale),"wild oat; Preemergence, Rate 250 g/ha",0
same,Wild oats plant response rating,wild oat; [6],0
same,"Plant response rating, Wild oats",wild oat; [7],0
same,"Plant response rating, Bedstraw","bedstraw; Rate 62 g/ha, scale of 0 to 10 where 0 is no effect and 10 is complete control",0
same,Bedstraw plant response rating,bedstraw; Rate 125 g/ha,0
same,Bedstraw plant response rating (0 to 10 scale),bedstraw; Rate 250 g/ha,0
same,Bedstraw plant response rating,bedstraw; Rate 500 g/ha,0
same,Corn plant response rating,corn; [1],0
same,Corn plant response rating,corn; [2],0
same,"Plant response rating, Corn",corn; [3],0
same,"Plant response rating, Corn",corn; [4],0
same,Corn plant response rating,corn; [5],0
same,Corn plant response rating (0 to 10 scale),"corn; Preemergence, Rate 250 g/ha",0
same,Corn plant response rating,corn; [6],0
same,"Plant response rating, Corn",corn; [7],0
same,Blackgrass plant response rating,blackgrass; [1],0
same,Blackgrass plant response rating,blackgrass; [2],0
same,"Plant response rating, Blackgrass",blackgrass; [3],6
same,"Plant response rating, Blackgrass",blackgrass; [4],0
same,Blackgrass plant response rating,blackgrass; [5],0
same,Blackgrass plant response rating (0 to 10 scale),"blackgrass; Preemergence, Rate 250 g/ha",0
same,Blackgrass plant response rating,blackgrass; [6],0
same,"Plant response rating, Blackgrass",blackgrass; [7],0
same,Nutsedge plant response rating,purple nutsedge; [1],0
same,Nutsedge plant response rating,purple nutsedge; [2],0
same,"Plant response rating, Nutsedge",purple nutsedge; [3],0
same,"Plant response rating, Nutsedge",purple nutsedge; [4],0
same,Nutsedge plant response rating,purple nutsedge; [5],0
same,Nutsedge plant response rating (0 to 10 scale),"purple nutsedge; Preemergence, Rate 250 g/ha",0
same,Nutsedge plant response rating,purple nutsedge; [6],0
same,"Plant response rating, Nutsedge",purple nutsedge; [7],0
same,Velvetleaf plant response rating,velvetleaf; [1],3
same,Velvetleaf plant response rating,velvetleaf; [2],4
same,"Plant response rating, Velvetleaf",velvetleaf; [3],6
same,"Plant response rating, Velvetleaf",velvetleaf; [4],0
same,Velvetleaf plant response rating,velvetleaf; [5],0
same,Velvetleaf plant response rating (0 to 10 scale),"velvetleaf; Preemergence, Rate 250 g/ha",0
same,Velvetleaf plant response rating,velvetleaf; [6],0
same,"Plant response rating, Velvetleaf",velvetleaf; [7],4
same,Giant foxtail plant response rating,giant foxtail; [1],2
same,Giant foxtail plant response rating,giant foxtail; [2],4
same,"Plant response rating, Giant foxtail",giant foxtail; [3],9
same,"Plant response rating, Giant foxtail",giant foxtail; [4],9
same,Giant foxtail plant response rating,giant foxtail; [5],10
same,Giant foxtail plant response rating (0 to 10 scale),"giant foxtail; Preemergence, Rate 250 g/ha",10
same,Giant foxtail plant response rating,giant foxtail; [6],10
same,"Plant response rating, Giant foxtail",giant foxtail; [7],4
same,Redroot pigweed plant response rating,pigweed; [1],0
same,Redroot pigweed plant response rating,pigweed; [2],3
same,"Plant response rating, Redroot pigweed",pigweed; [3],0
same,"Plant response rating, Redroot pigweed",pigweed; [4],0
same,Redroot pigweed plant response rating,pigweed; [5],0
same,Redroot pigweed plant response rating (0 to 10 scale),"pigweed; Preemergence, Rate 250 g/ha",0
same,Redroot pigweed plant response rating,pigweed; [6],0
same,Soybean plant response rating,soybean; [1],2
same,Soybean plant response rating,soybean; [2],4
same,"Plant response rating, Soybean",soybean; [3],4
same,"Plant response rating, Soybean",soybean; [4],0
same,Soybean plant response rating,soybean; [5],0
same,Soybean plant response rating (0 to 10 scale),"soybean; Preemergence, Rate 250 g/ha",0
same,Soybean plant response rating,soybean; [6],0
same,"Plant response rating, Soybean",soybean; [7],4
same,Morningglory plant response rating,morningglory; [1],3
same,Morningglory plant response rating,morningglory; [2],4
same,"Plant response rating, Morningglory",morningglory; [3],10
same,"Plant response rating, Morningglory",morningglory; [4],0
same,Morningglory plant response rating,morningglory; [5],0
same,Morningglory plant response rating (0 to 10 scale),"morningglory; Preemergence, Rate 250 g/ha",0
same,Morningglory plant response rating,morningglory; [6],0
same,"Plant response rating, Morningglory",morningglory; [7],4
same,Wheat plant response rating,wheat; [1],0
same,Wheat plant response rating,wheat; [2],0
same,"Plant response rating, Wheat",wheat; [3],0
same,"Plant response rating, Wheat",wheat; [4],0
same,Wheat plant response rating,wheat; [5],0
same,Wheat plant response rating (0 to 10 scale),"wheat; Preemergence, Rate 250 g/ha",0
same,Wheat plant response rating,wheat; [6],0
same,"Plant response rating, Wheat",wheat; [7],0
same,Rape plant response rating,rape; [1],0
same,Rape plant response rating,rape; [2],0
same,"Plant response rating, Rape",rape; [3],9
same,"Plant response rating, Rape",rape; [4],0
same,Rape plant response rating,rape; [5],0
same,Rape plant response rating (0 to 10 scale),"rape; Preemergence, Rate 250 g/ha",0
same,Rape plant response rating,rape; [6],0
same,"Plant response rating, Rape",rape; [7],0
same,B. signalgrass plant response rating,surinam grass; [1],0
same,B. signalgrass plant response rating,surinam grass; [2],0
same,"Plant response rating, B. signalgrass",surinam grass; [3],2
same,"Plant response rating, B. signalgrass",surinam grass; [4],0
same,B. signalgrass plant response rating,surinam grass; [5],0
same,"B. signalgrass plant response rating (0 to 10 scale, 0 is no effect, 10 is complete control)","surinam grass; Preemergence, Rate 250 g/ha",0
same,B. signalgrass plant response rating,"surinam grass; Preemergence, Rate 500 g/ha, scale 0 to 10, 0 is no effect, 10 is complete control",0
same,"Plant response rating, B. signalgrass",surinam grass; [7],0
